Laboratory results reported in patent US20090318494A1, “PYRAZOLO[3,4-B]PYRIDINE COMPOUNDS, AND THEIR USE AS PDE4 INHIBITORS” (Glaxo Group Limited, priority 2006, published 2009).
Where a name gives a salt, the structure may show the parent alone. Values belong to the compound of their own block, whether it stands above or below them.

Experiments:
[1] = tested on: atopic dermatitis patients; conditions: cited from earlier work
[2] = molecular target: T1, PDE4B (human recombinant) (Homo sapiens, UniProt Q07343); test: Inhibition of PDE4B activity: IMAP Fluorescence Polarisation (FP) assay; type: biochemical; conditions: FP assay or generally similar assay; each limit ±about 0.5; n=1 or average of 2 or more readings; read-out: PDE4B inhibitory activities, pIC50 (converted)
T1 construct: made in house; host or cells: Saccharomyces cerevisiae strain GL62 (named as a possible source, as described in WO 94/20079)
T1 sequence (Q07343 1-564 isoform Q07343-2): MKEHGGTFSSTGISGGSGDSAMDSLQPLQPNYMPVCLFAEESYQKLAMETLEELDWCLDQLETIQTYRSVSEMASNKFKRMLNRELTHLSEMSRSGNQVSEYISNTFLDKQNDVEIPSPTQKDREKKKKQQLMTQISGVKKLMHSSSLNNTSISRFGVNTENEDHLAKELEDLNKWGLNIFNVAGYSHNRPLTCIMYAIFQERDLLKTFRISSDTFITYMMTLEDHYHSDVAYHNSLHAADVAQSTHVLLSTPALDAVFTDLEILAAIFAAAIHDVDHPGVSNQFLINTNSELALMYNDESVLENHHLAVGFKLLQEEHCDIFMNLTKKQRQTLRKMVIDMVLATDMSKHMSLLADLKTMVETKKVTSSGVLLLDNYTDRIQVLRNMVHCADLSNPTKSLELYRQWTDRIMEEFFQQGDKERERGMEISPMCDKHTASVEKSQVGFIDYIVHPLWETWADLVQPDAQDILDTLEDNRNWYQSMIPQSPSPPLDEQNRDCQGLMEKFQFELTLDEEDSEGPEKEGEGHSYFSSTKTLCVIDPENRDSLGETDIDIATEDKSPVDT
Source text: The ability of compounds to inhibit catalytic activity at PDE4B (human recombinant) or PDE4D (human recombinant) can optionally be determined by IMAP Fluorescence Polarisation (FP) assay (IMAP Explorer kit, available from Molecular Devices Corporation, Sunnydale, Calif., USA; Molecular Devices code: R8062) in 384-well format.
The IMAP FP assay is able to measure PDE activity in an homogenous, non-radioactive assay format. The FP assay uses the ability of immobilised trivalent metal cations, coated onto nanoparticles (tiny beads), to bind the phosphate group of Fl-AMP that is produced on the hydrolysis of fluorescein-labelled (Fl) cyclic adenosine mono-phosphate (Fl-cAMP) to the non-cyclic Fl-AMP form. […] Binding of Fl-AMP product to the beads (coated with the immobilised trivalent cations) slows the rotation of the bound Fl-AMP and leads to an increase in the fluorescence polarisation ratio of parallel to perpendicular light. Inhibition of the PDE reduces/inhibits this signal increase.
Test compounds (small volume, e.g. ca. 0.5 to 1 microlitres (ul), suitably ca. 0.5 ul, of solution in DMSO) are preincubated at ambient temperature (room temperature, e.g. 19-23° C.) in black 384-well microtitre plates (supplier: NUNC, code 262260) with PDE enzyme in 10 mM Tris-HCl buffer pH 7.2, 10 mM MgCl2, 0.1% (w/v) bovine serum albumin, and 0.05% NaN3 for 10-30 minutes. The enzyme level is set by experimentation so that reaction is linear throughout the incubation. Fluorescein adenosine 3′,5′-cyclic phosphate (from Molecular Devices Corporation, Molecular Devices code: R7091) is added to give about 40 nM final concentration (final assay volume usually ca. 20-40 ul, suitably ca. 20 ul). Plates are mixed on an orbital shaker for 10 seconds and incubated at ambient temperature for 40 minutes. IMAP binding reagent (as described above, from Molecular Devices Corporation, Molecular Devices code: R7207) is added (60 ul of a 1 in 400 dilution in binding buffer of the kit stock solution) to terminate the assay. Plates are allowed to stand at ambient temperature for 1 hour. The Fluorescence Polarisation (FP) ratio of parallel to perpendicular light is measured using an Analyst™ plate reader (from Molecular Devices Corporation). For inhibition curves, 10 concentrations (e.g. 1.5 nM-30 uM) of each compound are assayed. Curves are analysed using ActivityBase and XLfit (ID Business Solutions Limited, 2 Ocean Court, Surrey Research Park, Guildford, Surrey GU2 7QB, United Kingdom). Results are expressed as pIC50 values.
In the FP assay, reagents can be dispensed using Multidrop™ (available from Thermo Labsystems Oy, Ratastie 2, PO Box 100, Vantaa 01620, Finland).

COPD patients = conditions: cited from earlier work

Structure (SMILES): COc1ccc(C2CNC(=O)NC2)cc1O[C@H]1C[C@@H]2CC[C@H]1C2 [CP80,633]
- inflammatory parameters in atopic dermatitis patients ([1]; 0.5% ointment, twice daily topical application): reductions of inflammatory parameters

Structure (SMILES): COc1ccc([C@]2(C#N)CC[C@@H](C(=O)O)CC2)cc1OC1CCCC1 [cilomilast]
- forced expiratory volume in 1s (FEV1) (COPD patients; 15 mg orally twice daily): appears to improve forced expiratory volume in 1s (FEV1)
- antiinflammatory effects in COPD patients (COPD patients): appears to have antiinflammatory effects

Structure (SMILES): Nc1nc2c([nH]1)c(=O)n(CC1CC1)c(=O)n2CC1CC1 [cipamfylline]
- efficacy in the treatment of atopic dermatitis patients versus hydrocortisone 17-butyrate (0.1%) cream ([1]; 0.15% cream): significantly less effective than hydrocortisone 17-butyrate (0.1%) cream
- efficacy in the treatment of atopic dermatitis patients versus vehicle ([1]; 0.15% cream): significantly more effective than vehicle

Structure (SMILES): O=C(Nc1c(Cl)cncc1Cl)c1ccc(OC(F)F)c(OCC2CC2)c1 [roflumilast]
- FEV1 in COPD patients (COPD patients): appears to show small improvements in FEV1

Next, values leading:

- IC50 [2]: 0.2 to 1.58 nM
Structure (SMILES): CCc1nc2c(cnn2CC)c(NC2CCN(C(N)=O)CC2)c1CNC(=O)CCCCCCCN1CCC[C@@H]1COC [Example 7, 4-[(1,6-diethyl-5-{[(8-{(2R)-2-[(methyloxy)methyl]-1-pyrrolidinyl}octanoyl)amino]methyl}-1H-pyrazolo[3,4-b]pyridin-4-yl)amino]-1-piperidinecarboxamide trifluoroacetate]

- IC50 [2]: 0.2 to 1.58 nM
Structure (SMILES): CCc1nc2c(cnn2CC)c(NC2CCN(C(N)=O)CC2)c1CNC(=O)CCCCCCCN1CCC[C@H]1COC [Example 8, 4-[(1,6-diethyl-5-{[(8-{(2S)-2-[(methyloxy)methyl]-1-pyrrolidinyl}octanoyl)amino]methyl}-1H-pyrazolo[3,4-b]pyridin-4-yl)amino]-1-piperidinecarboxamide trifluoroacetate]

- IC50 [2]: 0.2 to 1.58 nM
Structure (SMILES): CCc1nc2c(cnn2CC)c(NC2CCOCC2)c1CNC(=O)CCCCCCCN1CCC[C@@H]1COC [Example 15, N-{[1,6-diethyl-4-(tetrahydro-2H-pyran-4-ylamino)-1H-pyrazolo[3,4-b]pyridin-5-yl]methyl}-8-{(2R)-2-[(methyloxy)methyl]-1-pyrrolidinyl}octanamide trifluoroacetate]

- IC50 [2]: 0.2 to 1.58 nM
Structure (SMILES): CCc1nc2c(cnn2CC)c(NC2CCOCC2)c1CNC(=O)CCCCCCCN1CCC[C@H]1COC [Example 16, N-{[1,6-diethyl-4-(tetrahydro-2H-pyran-4-ylamino)-1H-pyrazolo[3,4-b]pyridin-5-yl]methyl}-8-{(2S)-2-[(methyloxy)methyl]-1-pyrrolidinyl}octanamide trifluoroacetate]
